US20220306617A1, “SUBSTITUTED 1,3-PHENYL HETEROARYL DERIVATIVES AND THEIR USE IN THE TREATMENT OF DISEASE” (NOVARTIS AG, priority 2019, published 2022)
Where a name gives a salt, the structure may show the parent alone.

Target: T1, abc isoform of human TMEM16A channel expressed in CHO cells (Homo sapiens, UniProt Q5XXA6, DEL476-501)
T1 construct: expressed in transfected cells; host or cells: CHO cells, doxycycline-inducible expression under Blasticidin/Zeocin selection
T1 sequence (Q5XXA6 with tags, fused parts or gaps isoform Q5XXA6-5 DEL539-564): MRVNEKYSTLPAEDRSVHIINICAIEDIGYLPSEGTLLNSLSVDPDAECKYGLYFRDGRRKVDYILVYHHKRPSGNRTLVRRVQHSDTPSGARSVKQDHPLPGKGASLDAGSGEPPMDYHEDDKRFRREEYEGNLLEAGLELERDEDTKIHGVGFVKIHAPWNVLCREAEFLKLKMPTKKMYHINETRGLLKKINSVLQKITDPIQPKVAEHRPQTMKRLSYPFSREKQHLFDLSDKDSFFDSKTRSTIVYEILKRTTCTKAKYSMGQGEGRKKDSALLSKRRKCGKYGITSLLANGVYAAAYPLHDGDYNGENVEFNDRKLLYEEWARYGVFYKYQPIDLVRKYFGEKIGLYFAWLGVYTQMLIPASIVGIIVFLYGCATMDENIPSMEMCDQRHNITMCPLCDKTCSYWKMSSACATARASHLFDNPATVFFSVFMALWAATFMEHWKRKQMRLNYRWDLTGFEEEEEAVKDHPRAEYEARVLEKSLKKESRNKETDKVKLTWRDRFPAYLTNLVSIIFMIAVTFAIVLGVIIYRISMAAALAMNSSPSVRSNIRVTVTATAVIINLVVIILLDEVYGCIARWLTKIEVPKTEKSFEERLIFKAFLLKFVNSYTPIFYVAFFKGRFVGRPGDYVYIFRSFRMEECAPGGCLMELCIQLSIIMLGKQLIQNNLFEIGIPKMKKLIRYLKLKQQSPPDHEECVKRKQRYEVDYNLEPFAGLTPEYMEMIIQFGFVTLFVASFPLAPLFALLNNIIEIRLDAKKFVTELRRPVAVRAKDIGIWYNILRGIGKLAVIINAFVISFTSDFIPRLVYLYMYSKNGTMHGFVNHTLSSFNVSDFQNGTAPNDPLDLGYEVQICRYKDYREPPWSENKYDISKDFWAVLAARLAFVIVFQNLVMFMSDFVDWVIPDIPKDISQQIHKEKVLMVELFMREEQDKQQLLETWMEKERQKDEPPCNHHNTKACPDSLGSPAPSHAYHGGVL
Test: Automated patch clamping (QPatch) assay to measure TMEM16A activity in whole-cell
Assay type: cell-based
Details: for EC50: CHO cells expressing human TMEM16A (abc), whole-cell automated patch clamp, Hill fit, read-out: TMEM16A QPATCH assay EC50 V3 EC50; for Emax: CHO, read-out: TMEM16A QPATCH assay EC50 V3 Assay Window (% TMEM16A max activation)
Summary of the method: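 CHO cells with doxycycline-induced (1 μg/mL, 18-24 h) human TMEM16A abc isoform; QPatch whole-cell recording, hold −70 mV, step +70 mV 1500 ms, then −90 to +70 mV ramp. Compounds in 0.3% DMSO; EC50 by Hill fit; % max activation relative to vehicle baseline and reference potentiator maximum.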

[1] = maximum current at highest dose relative to reference potentiator at maximal concentration (upper limit) and vehicle (lower limit)

EC50 | Emax [1] | TMEM16A QPATCH assay EC50 V3 Assay Window (% TMEM16A max activation) [1] | SMILES
640 nM | 91% |  | CCC(CC)NC(=O)c1cc(-c2cccc(-c3ncc(C(=O)N[C@@H](CC(C)C)C(=O)OC)o3)c2)[nH]n1 [Example 1.26, (S)-Methyl 4-Methyl-2-(2-(3-(3-(Pentan-3-Ylcarbamoyl)-1H-Pyrazol-5-yl)Phenyl)Oxazole-5-Carboxamido)Pentanoate]
330 nM | 154% |  | CCC(CC)NC(=O)c1cnc(-c2cccc(-c3nc(C(=O)NC(CC)CC)n(CCNCc4ccccc4)n3)c2)o1 [Example 15.6, 2-(3-(1-(2-(Benzylamino)Ethyl)-5-(Pentan-3-Ylcarbamoyl)-1H-1,2,4-Triazol-3-Yl)Phenyl)-N-(Pentan-3-Yl)Oxazole-5-Carboxamide]
200 nM | 81% |  | CCC(CC)NC(=O)c1cc(-c2cccc(-c3ncc(C(=O)N[C@H](C(=O)OC(C)(C)C)c4ccccc4)o3)c2)[nH]n1 [Example 1.37, (S)-Tert-Butyl 2-(2-(3-(3-(Pentan-3-Ylcarbamoyl)-1H-Pyrazol-5-yl)Phenyl)Oxazole-5-Carboxamido)-2-Phenylacetate]
720 nM | 109% |  | CCC(CC)NC(=O)c1cnc(-c2cccc(-c3cc(C(=O)N[C@H](CC)[C@H]4CC[C@@H](C)O4)n[nH]3)c2)o1 [Example 3.53, 2-(3-(3-(((R)-1-((2R,5R)-5-Methyltetrahydrofuran-2-Yl)Propyl)Carbamoyl)-1 H-Pyrazol-5-Yl)Phenyl)-N-(Pentan-3-Yl)Oxazole-5-Carboxamide]
130 nM | 69% |  | CCC(CC)NC(=O)c1cc(-c2cccc(-c3ncc(C(=O)NCc4ccccc4)o3)c2)[nH]n1 [Example 1.19, N-Benzyl-2-(3-(3-(Pentan-3-Ylcarbamoyl)-1H-Pyrazol-5-Yl)Phenyl)Oxazole-5-Carboxamide]
80 nM | 80% |  | CCOC(=O)Cn1nc(-c2cccc(-c3ncc(C(=O)NC(CC)CC)o3)c2)nc1C(=O)NC(CC)CC [Example 15.2, Ethyl 2-(5-(Pentan-3-Ylcarbamoyl)-3-(3-(5-(Pentan-3-Ylcarbamoyl)Oxazol-2-Yl)Phenyl)-1 H-1,2,4-Triazol-1-Yl)Acetate]
580 nM | 94% |  | CCC(CC)NC(=O)c1cc(-c2cccc(-c3ncc(C(=O)NCc4ccc(F)cc4)o3)c2)[nH]n1 [Example 1.17, N-(4-Fluorobenzyl)-2-(3-(3-(Pentan-3-Ylcarbamoyl)-1H-Pyrazol-5-yl)Phenyl)Oxazole-5-Carboxamide]
160 nM | 150% |  | CCOC(=O)[C@H](CC(C)C)NC(=O)c1cc(-c2cccc(-c3ncc(C(=O)NC(CC)CC)o3)c2)[nH]n1 [Example 3.60, (S)-Ethyl 4-Methyl-2-(5-(3-(5-(Pentan-3-Ylcarbamoyl)Oxazol-2-Yl)Phenyl)-1H-Pyrazole-3-Carboxamido)Pentanoate Trifluoroacetate]
580 nM | 177% |  | CCC(CC)NC(=O)c1cnc(-c2cccc(-c3nnc(C(=O)N[C@@H](C)C4CC4)[nH]3)c2)o1 [Example 14.0, (S)-2-(3-(5-((1-Cyclopropylethyl)Carbamoyl)-4H-1,2,4-Triazol-3-Yl)Phenyl)-N-(Pentan-3-Yl)Oxazole-5-Carboxamide]
30 nM | 119% |  | CCOC(=O)[C@@H](NC(=O)c1cnc(-c2cccc(-c3cc(C(=O)NC(CC)C(F)(F)F)[nH]n3)c2)o1)C(C)C (stereo partly drawn) [Example 1.22, (2S)-Ethyl 3-Methyl-2-(2-(3-(5-((1,1,1-Trifluorobutan-2-Yl)Carbamoyl)-1H-Pyrazol-3-Yl)Phenyl)Oxazole-5-Carboxamido)Butanoate]
120 nM | 154% |  | CCOC(=O)[C@@H](NC(=O)c1cnc(-c2cccc(-c3cc(C(=O)NC(C4CC4)C4CC4)n(CCCO)n3)c2)o1)C(C)C [Example 4.5, (S)-Ethyl 2-(2-(3-(5-((Dicyclopropylmethyl)Carbamoyl)-1-(3-Hydroxypropyl)-1 H-Pyrazol-3-Yl)Phenyl)Oxazole-5-Carboxamido)-3-Methylbutanoate]
490 nM | 43% |  | CCC(CC)NC(=O)c1cnc(-c2cccc(-c3cc(C(=O)Nc4cccc(OC(F)(F)F)c4)n[nH]3)c2)o1 [Example 3.14, N-(Pentan-3-Yl)-2-(3-(3-((3-(Trifluoromethoxy)Phenyl)Carbamoyl)-1 H-Pyrazol-5-Yl)Phenyl)Oxazole-5-Carboxamide]
510 nM | 69% |  | CCOC(=O)[C@H](NC(=O)c1cnc(-c2cccc(-c3cc(C(=O)NC(CC)CC)[nH]n3)c2)o1)C(C)C [Example 1.44, (R)-Ethyl 3-Methyl-2-(2-(3-(5-(Pentan-3-Ylcarbamoyl)-1H-Pyrazol-3-yl)Phenyl)Oxazole-5-Carboxamido)Butanoate]
400 nM | 70% |  | COC(=O)C1(NC(=O)c2cnc(-c3cccc(-c4cc(C(=O)N[C@@H](C)C5CC5)[nH]n4)c3)o2)CCC1 [Example 1.49, (S)-Methyl 1-(2-(3-(5-((1-Cyclopropylethyl)Carbamoyl)-1H-Pyrazol-3-Yl)Phenyl)Oxazole-5-Carboxamido)Cyclobutanecarboxylate]
190 nM | 92% |  | COC(=O)[C@@H](NC(=O)c1cnc(-c2cccc(-c3nnc(C(=O)N[C@@H](C)C4CC4)[nH]3)c2)o1)C(C)(C)C [Example 12.10, (S)-Methyl 2-(2-(3-(5-(((S)-1-Cyclopropylethyl)Carbamoyl)-4H-1,2,4-Triazol-3-Yl)Phenyl)Oxazole-5-Carboxamido)-3,3-Dimethylbutanoate]
450 nM | 82% |  | CCOC(=O)C1(C)CCN(C(=O)c2cc(-c3cccc(-c4ncc(C(=O)NC(CC)CC)o4)c3)[nH]n2)C1 (stereo not drawn) [Example 3.20, Ethyl 3-Methyl-1-(5-(3-(5-(Pentan-3-Ylcarbamoyl)Oxazol-2-Yl)Phenyl)-1H-Pyrazole-3-Carbonyl)Pyrrolidine-3-Carboxylate]
570 nM | 72% |  | CCC(CC)NC(=O)c1cc(-c2cccc(-c3ncc(C(=O)NCC4(C)CCCCC4)o3)c2)[nH]n1 [Example 1.34, N-((1-Methylcyclohexyl)Methyl)-2-(3-(3-(Pentan-3-Ylcarbamoyl)-1 H-Pyrazol-5-Yl)Phenyl)Oxazole-5-Carboxamide]
290 nM | 99% |  | COC(=O)[C@H](CC(C)C)NC(=O)c1cnc(-c2cccc(-c3nnc(C(=O)N[C@@H](C)C4CC4)[nH]3)c2)o1 [Example 12.13]
260 nM | 76% |  | CCC(CC)NC(=O)c1cc(-c2cccc(-c3ncc(C(=O)NC(C)(C)C(=O)OC(C)(C)C)o3)c2)[nH]n1 [Example 3.69, Tert-Butyl 2-Methyl-2-(2-(3-(3-(Pentan-3-Ylcarbamoyl)-1H-Pyrazol-5-Yl)Phenyl)Oxazole-5-Carboxamido)Propanoatehexafluorophosphatepropanoate Hexafluorophosphate]
650 nM | 77% |  | C[C@@H](NC(=O)c1n[nH]c(-c2cccc(-c3ncc(C(=O)N[C@H](C)C4CC4)o3)c2)n1)C1CC1 [Example 13.2, N-((R)-1-Cyclopropylethyl)-2-(3-(3-(((R)-1-Cyclopropylethyl)Carbamoyl)-1H-1,2,4-Triazol-5-Yl)Phenyl)Oxazole-5-Carboxamide]
130 nM |  | 115% | C[C@H](NC(=O)c1cc(-c2cccc(-c3ncc(C(=O)NC(C4CC4)C4CC4)o3)c2)nn1CC(O)C(F)(F)F)C1CC1 (single isomer, unassigned) [Example 9.2 (i)]
